The text below walks through data of patent EP0324626A1, “1,4-Dihydropyridine derivatives” (priority 1988, dated 1989).

A value given as a limit tells only on which side of the number the result lay.

The nature of this data set: Acute toxicity test (limit test and range finding test), oral administration. The conditions noted are these: both, ICR, mouse, in vivo. As to the method:
The limit test and the range finding test were carried out using the SPF mice, as stated below, and LD₅₀ values were determined.
The dead mice are weighed and organ examinations are carried out for macroscopical lesions. Also, on the last day of the test all surviving mice are sacrificed and used for examinations.
If the mortality is more than 50% in the limit test, the range finding test is carried out for 14 days with three doses groups including the putative LD₅₀ value. The method is same as the foregoing limit test.

One may read the LD50 as the dose expected to kill half of the subjects tested.

For `C=CC(C)OC(=O)C1=C(C)NC(C)=C(C(=O)OCCN(C)Cc2ccccc2)C1c1cccc([N+](=O)[O-])c1` (stereo not drawn) [Example 1, 3-β-(N-benzyl-N-methylamino)ethyl 5-(1-methyl-2-propenyl) 2,6-dimethyl-4-(3′-nitrophenyl)-1,4-dihydropyridine-3,5-dicarboxylate], the LD50 at 14 days was > 1000 mg/kg.

Regarding `C=CC(C)OC(=O)C1=C(C)NC(C)=C(C(=O)OCCOC)C1c1cccc([N+](=O)[O-])c1` (stereo not drawn) [Example 3, 3-(1-methyl-2-propenyl) 5-(2-methoxyethyl) 2,6-dimethyl-4-(3′-nitrophenyl)-1,4-dihydropyridine-3,5-dicarboxylate], the LD50 at 14 days was > 5000 mg/kg. For `C=C(C)COC(=O)C1=C(C)NC(C)=C(C(=O)OCCN(C)Cc2ccccc2)C1c1cccc([N+](=O)[O-])c1` (stereo not drawn) [Example 8, 3-β-(N-benzyl-N-methylamino)ethyl 5-(2-methyl-2-propenyl) 2,6-dimethyl-4-(3′-nitrophenyl)-1,4-dihydropyridine-3,5-dicarboxylate], the LD50 at 14 days is > 1000 mg/kg. The same measure for `C=C(C)COC(=O)C1=C(C)NC(C)=C(C(=O)OC)C1c1cccc([N+](=O)[O-])c1` (stereo not drawn) [Example 12, 3-methyl 5-(2-methyl-2-propenyl) 2,6-dimethyl-4-(3′-nitrophenyl)-1,4-dihydropyridine-3,5-dicarboxylate]: 1000 mg/kg. To `C=CCOC(=O)C1=C(C)NC(C)=C(C(=O)OCC(=C)C)C1c1cccc([N+](=O)[O-])c1` (stereo not drawn) [Example 13, 3-(2-methyl-2-propenyl) 5-allyl 2,6-dimethyl-4-(3′-nitrophenyl)-1,4-dihydropyridine-3,5-dicarboxylate] belongs > 5000 mg/kg; to `COC(=O)C1=C(C)NC(C)=C(C(=O)OCCN(C)Cc2ccccc2)C1c1cccc([N+](=O)[O-])c1` (stereo not drawn) [Nicardipine, reference compound], < 700 mg/kg.
